Data published in patent EP0312000B1, “Aminomethyl oxooxazolidinyl aroylbenzene derivatives useful as antibacterial agents” (THE DU PONT MERCK PHARMACEUTICAL COMPANY, priority 1987, dated 1989).
Converted amounts (≈) assume the structure as drawn. Read-outs that look alike come from different tables or passages of the source.

Key:
Escherichia coli = test: In vitro broth microdilution minimal inhibitory concentration (MIC), Mueller-Hinton broth; format: cell-based; conditions: 24-hour MIC, standard microdilution method, read-out: Minimum Inhibitory Concentration Escherichia coli
Description: (§1) A standard microdilution method (National Committee for Clinical Standards. Tentative standard M7-T. Standard methods for dilution antimicrobial susceptibility tests for bacteria that grow aerobically. National Committee for Clinical Laboratory Standards, Villanova, PA. 1982) with Mueller-Hinton broth is used to determine the 24-hour minimal inhibitory concentrations (MIC's) for test strains of Staphylococcus aureus and Escherichia coli.

Staphylococcus aureus [1] = test: as above; format: cell-based; conditions: 24-hour MIC, standard microdilution method, read-out: Minimum Inhibitory Concentration Staphylococcus aureus
Description: as §1

Staphylococcus Aureus [2] = test: In vivo activity in an acute lethal mouse infection model; conditions: 168 h, mice infected intraperitoneally with S. aureus, dosed at one hour and four hours post-infection, survivors on seventh day
Experimental: The in vivo potency of these compounds is exemplified by the data summarized in Table V. Determinations of in vivo efficacy are performed by inoculating mice intraperitoneally with cultures of the infecting organism diluted to produce 100% mortality in control animals within twenty-four hours. The culture of S. aureus used to infect the animals was diluted to the required bacterial density using 5% aqueous hog gastric mucin. The compounds are dissolved or suspended in 0.25% aqueous Methocel® (Methocel®: Hydroxypropyl Methylcellulose, E15 Premium, Dow Chemical Company) for oral administration or sterile distilled water containing 5% dimethylsulfoxide (Fisher Scientific Company, Fairlawn, NJ) for subcutaneous administration. The mice are dosed at one hour and at four hours post-infection. Mortality is recorded daily until test termination seven days post infection. The number of survivors in each treatment group on the seventh day after infection is used in the calculation of the ED₅₀, the dose of compound that protects 50% of the mice (Litchfield, J. T. and Wildoxon. A simplified method for evaluating dose-effect experiments. J. Pharmacol Exp. Ther., 96:99-113, 1949).

[3] = oral in 0.25% aqueous Methocel, read-out: ED₅₀ Oral Administration
[4] = sc, subcutaneous in sterile distilled water containing 5% dimethylsulfoxide, read-out: ED₅₀ Subcutaneous Administration

| SMILES | MIC (Escherichia coli) | MIC (Staphylococcus aureus [1]) | ED50 (Staphylococcus Aureus [2]; [3]) | ED50 (Staphylococcus Aureus [2]; [4]) |
| --- | --- | --- | --- | --- |
| COc1cc(Cl)ccc1C(=O)c1ccc(N2C[C@H](CNC(C)=O)OC2=O)cc1 [Example 7] | > 128 mg/L | 32 mg/L (≈ 79.4 µM) | > 120 mg/kg | > 120 mg/kg |
| CC(=O)NC[C@H]1CN(c2ccc(C(=O)c3cccnc3)cc2)C(=O)O1 [Example 15] | > 128 mg/L | 8 mg/L (≈ 23.6 µM) | > 90 mg/kg | 59 mg/kg |
| CSc1ccc(C(=O)c2ccc(N3C[C@H](CNC(C)=O)OC3=O)cc2)cc1 [Example 8] | > 128 mg/L | 4 mg/L (≈ 10.4 µM) | > 90 mg/kg | > 90 mg/kg |
| CC(=O)NC[C@H]1CN(c2ccc(C(=O)c3ccc(F)cc3)cc2)C(=O)O1 [Example 1, (ℓ)-N-[3-[4-(4-fluorobenzoyl)-phenyl]-2-oxooxazolidin-5-ylmethyl]acetamide] | > 128 mg/L | 4 mg/L (≈ 11.2 µM) | 40 mg/kg | 20 mg/kg |
| CC(=O)NC[C@H]1CN(c2ccc(C(=O)c3ccc(F)cc3F)cc2)C(=O)O1 [Example 6, (ℓ)-N-[3-[4-(2,4-difluorobenzoyl)phenyl]-2-oxooxazolidin-5-ylmethyl]acetamide] | > 128 mg/L | 1 mg/L (≈ 2.67 µM) | 30 mg/kg | 26 mg/kg |
| CC(=O)NC[C@H]1CN(c2ccc(C(=O)c3cccc(F)c3)cc2)C(=O)O1 [Example 5] | > 128 mg/L | 8 mg/L (≈ 22.4 µM) | 42 mg/kg | 25 mg/kg |
| CC(=O)NC[C@H]1CN(c2ccc(C(=O)c3ccc([N+](=O)[O-])cc3)cc2)C(=O)O1 [Example 9, (ℓ)-N-[3-[4-(4-nitrobenzoyl)phenyl]-2-oxooxazolidin-5-ylmethyl]acetamide] | > 128 mg/L | 1 mg/L (≈ 2.61 µM) | > 90 mg/kg | > 90 mg/kg |
| COc1ccc(C(=O)c2ccc(N3C[C@H](CNC(C)=O)OC3=O)cc2)cc1 [Example 3] | > 128 mg/L | 4 mg/L (≈ 10.9 µM) | 41 mg/kg | 15 mg/kg |
| CC(=O)NC[C@H]1CN(c2ccc(C(=O)c3ccc(S(C)(=O)=O)cc3)cc2)C(=O)O1 [Example 11] | > 128 mg/L | 4 mg/L (≈ 9.6 µM) | > 90 mg/kg | > 90 mg/kg |
| CC(=O)NC[C@H]1CN(c2ccc(C(=O)c3ccc([S+](C)[O-])cc3)cc2)C(=O)O1 (stereo partly drawn) [Example 10] | > 128 mg/L | 16 mg/L (≈ 40 µM) | > 90 mg/kg | > 90 mg/kg |
| CC(=O)NC[C@H]1CN(c2ccc(C(=O)c3ccccc3)cc2)C(=O)O1 [Example 2] | > 128 mg/L | 4 mg/L (≈ 11.8 µM) | 47 mg/kg | 60 mg/kg |
| CC(=O)NC[C@H]1CN(c2ccc(C(O)c3ccccc3)cc2)C(=O)O1 (stereo partly drawn) [Example 20] | > 128 mg/L | 32 mg/L (≈ 94 µM) | 65 mg/kg | 52 mg/kg |
